In patent publication US9796711B2, “Substituted pyrazolo[3,4-b]pyridin-6-carboxylic acids and method of use” (AbbVie S.àr.l., priority 2015, dated 2017):

Target: T1, ΔF508-CFTR (Homo sapiens, UniProt P13569, DEL508-508)
T1 construct: host or cells: CFBE41o-, doxycycline-inducible
Assay: CFTR cell surface levels using HRP-tagged ΔF508-CFTR expressing CFBE cells, in the presence of a co-corrector
Format: cell-based
Conditions: HRP-tagged ΔF508-CFTR expressing CFBE cells, in the presence of 3 μM co-corrector; for EC50: read-out: EC50
Excerpt: Measuring CFTR Cell Surface Levels Using HRP-Tagged AF508-CFTR Expressing CFBE Cells
The HRP-tagged AF508-CFTR cell assay measures the expression of CFTR-ΔF508 at the plasma membrane. CFTR-ΔF508 has a folding defect leading to absence of protein at the plasma membrane. This assay is used to evaluate the capacity of compounds to increase the expression of CFTR-ΔF508 at the plasma membrane. The CFTR-ΔF508 is tagged with HRP (horse radish peroxidase enzyme) within the ECL4 (Extracellular loop 4) of CFTR (Phuan, P.-W. et al. Synergy-based small-molecule screen using a human lung epithelial cell line yields AF508-CFTR correctors that augment VX-809 maximal efficacy. Mol. Pharmacol. 86, 42-51 (2014)). When HRP-tagged AF508-CFTR is present at the plasma membrane, the HRP enzyme activity can be measured. The amount of CFTR-ΔF508 that can be rescued to the plasma membrane is correlated with the amount of functional enzyme that can be measured.
There are several ways to measure the capacity of compounds to rescue CFTR-ΔF508 to the plasma membrane; either compounds are evaluated on their own and the impact on plasma membrane levels is measured or compounds are evaluated in combination with a co-corrector, i.e. a compound that rescues CFTR-ΔF508 to the plasma membrane but rescue can be enhanced by addition of compounds due to a complementary mode of action.
Activity of Compounds in Combination with Co-Corrector:
For this purpose doxycycline-inducible AF508-CFTR-HRP expressing CFBE4lo-cells (obtained from Gergely Lukacs, McGill University) were maintained in MEM (Minimum Essential Medium, Gibco; 31095) supplemented with 10% fetal bovine serum (Hyclone; SV30160.03) under puromycin (3 μg/mL) and G418 selection (0.2 mg/mL). For compound testing, cells were seeded at 4000 cells/well in white 384-well plates (Greiner; 781080) in 50 μL of medium containing 0.5 μg/mL doxycycline and incubated for 68 hours at 37° C., 5% CO2. On day four, 10 μL of test compounds diluted in PBS (phosphate buffered saline) were added to the plates at a final DMSO concentration of 0.1%. In order to measure compound synergy with a co-corrector, 3 μM co-corrector (3-[(2R,4R)-4-({[1-(2,2-difluoro-1,3-benzodioxol-5-yl)cyclopropyl]carbonyl}amino)-7-methoxy-3,4-dihydro-2H-chromen-2-yl]benzoic acid) was added along with test compounds. All compound plates contained negative controls (DMSO) and positive controls (3 μM co-corrector). Cell plates were incubated at 33° C., 5% CO2 for 20 hours. On day five, the cells were washed five times with phosphate-buffered saline, and HRP activity was assayed by the addition of 50 μL/well of HRP substrate (SuperSignal™ West Pico Chemiluminescent Substrate, Thermo Scientific; 34080). After incubation for 15 minutes in the dark, the chemiluminescence was measured using a plate reader (EnVision®, Perkin Elmer). Raw data were normalized to percentage activity values using the equation: 100×(Sample−Negative control)/(Positive control−Negative Control).

T1 sequence (P13569 with tags, fused parts or gaps DEL508-508): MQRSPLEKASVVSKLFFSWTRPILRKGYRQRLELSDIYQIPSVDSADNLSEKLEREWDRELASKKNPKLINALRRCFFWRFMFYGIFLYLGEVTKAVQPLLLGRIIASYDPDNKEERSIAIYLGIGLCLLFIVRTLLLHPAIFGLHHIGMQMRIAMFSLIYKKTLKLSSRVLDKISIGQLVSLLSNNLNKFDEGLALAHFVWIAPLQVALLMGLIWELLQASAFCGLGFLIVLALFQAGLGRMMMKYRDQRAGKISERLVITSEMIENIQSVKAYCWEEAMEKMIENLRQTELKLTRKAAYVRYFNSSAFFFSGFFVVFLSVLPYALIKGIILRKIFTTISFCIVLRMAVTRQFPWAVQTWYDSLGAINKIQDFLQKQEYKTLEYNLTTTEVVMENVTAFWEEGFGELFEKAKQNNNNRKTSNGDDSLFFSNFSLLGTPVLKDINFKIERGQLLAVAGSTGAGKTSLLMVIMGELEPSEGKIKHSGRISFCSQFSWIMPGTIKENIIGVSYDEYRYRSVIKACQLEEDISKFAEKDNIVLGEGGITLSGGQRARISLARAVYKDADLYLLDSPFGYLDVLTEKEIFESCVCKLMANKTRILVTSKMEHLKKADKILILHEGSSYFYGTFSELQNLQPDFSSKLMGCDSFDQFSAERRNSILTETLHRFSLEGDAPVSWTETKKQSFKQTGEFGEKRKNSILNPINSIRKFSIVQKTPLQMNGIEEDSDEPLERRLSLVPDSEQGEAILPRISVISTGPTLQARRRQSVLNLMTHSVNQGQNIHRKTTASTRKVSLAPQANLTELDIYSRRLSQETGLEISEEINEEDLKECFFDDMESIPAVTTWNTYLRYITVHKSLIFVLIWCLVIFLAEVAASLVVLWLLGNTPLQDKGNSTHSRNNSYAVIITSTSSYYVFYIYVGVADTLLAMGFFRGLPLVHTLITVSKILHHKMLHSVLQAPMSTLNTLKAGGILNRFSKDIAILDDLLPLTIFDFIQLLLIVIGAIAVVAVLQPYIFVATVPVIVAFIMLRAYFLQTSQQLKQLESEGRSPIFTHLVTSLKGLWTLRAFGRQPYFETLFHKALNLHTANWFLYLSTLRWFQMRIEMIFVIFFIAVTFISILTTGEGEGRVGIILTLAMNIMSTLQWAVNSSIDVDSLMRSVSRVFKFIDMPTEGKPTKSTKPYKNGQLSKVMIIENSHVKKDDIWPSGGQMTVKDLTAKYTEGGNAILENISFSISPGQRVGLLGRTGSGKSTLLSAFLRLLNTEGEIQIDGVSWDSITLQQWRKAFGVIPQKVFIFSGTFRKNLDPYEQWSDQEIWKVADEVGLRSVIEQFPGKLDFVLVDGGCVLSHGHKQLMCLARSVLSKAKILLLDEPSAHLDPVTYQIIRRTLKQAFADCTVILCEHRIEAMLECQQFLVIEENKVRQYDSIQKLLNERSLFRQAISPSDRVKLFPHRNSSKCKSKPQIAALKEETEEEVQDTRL

SMILES: CN1CCCC(CN(C)c2cc(C(=O)O)nc3c2c(C2CCC2)nn3-c2ccccc2)C1 (centres unmarked) [compound 593, 3-cyclobutyl-4-{methyl [(1-methylpiperidin-3-yl)methyl]amino}-1-phenyl-1H-pyrazolo[3,4-b]pyridine-6-carboxylic acid]
- % Activation: 313.3%
- EC50: 1.17 µM

SMILES: O=C(O)c1cc(OC2CCCC2)c2c(C3CCC3)nn(-c3ccccc3)c2n1 [compound 597, 3-cyclobutyl-4-(cyclopentyloxy)-1-phenyl-1H-pyrazolo[3,4-b]pyridine-6-carboxylic acid]
- % Activation: 342.5%
- EC50: 0.23 µM

SMILES: O=C(O)c1cc(O[C@H]2C[C@@H](N3CCC3)C2)c2c(C3CCC3)nn(-c3ccccc3)c2n1 [compound 598, 4-{[cis-3-(azetidin-1-yl)cyclobutyl]oxy}-3-cyclobutyl-1-phenyl-1H-pyrazolo[3,4-b]pyridine-6-carboxylic acid]
- % Activation: 274.4%
- EC50: 3.33 µM

SMILES: O=C(O)c1cc(OCC2CC(F)(F)C2)c2c(C3CCC3)nn(-c3ccccc3)c2n1 [compound 600, 3-cyclobutyl-4-[(3,3-difluorocyclobutyl)methoxy]-1-phenyl-1H-pyrazolo[3,4-b]pyridine-6-carboxylic acid]
- % Activation: 334.3%
- EC50: 0.383 µM

SMILES: CN1CC(Oc2cc(C(=O)O)nc3c2c(C2CCC2)nn3-c2ccccc2)C1 [compound 601, 3-cyclobutyl-4-[(1-methylazetidin-3-yl)oxy]-1-phenyl-1H-pyrazolo[3,4-b]pyridine-6-carboxylic acid]
- % Activation: 173.6%
- EC50: 2.48 µM

SMILES: CC(C)c1nn(-c2ccc(F)cc2)c2nc(C(=O)O)cc(OCCCN(C)C)c12 [compound 606, 4-[3-(dimethylamino)propoxy]-1-(4-fluorophenyl)-3-(propan-2-yl)-1H-pyrazolo[3,4-b]pyridine-6-carboxylic acid]
- % Activation: 199.7%
- EC50: 1.77 µM

SMILES: CC(C)c1nn(-c2ccc(F)cc2)c2nc(C(=O)O)cc(OCCCN3CCOCC3)c12 [compound 607, 1-(4-fluorophenyl)-4-[3-(morpholin-4-yl)propoxy]-3-(propan-2-yl)-1H-pyrazolo[3,4-b]pyridine-6-carboxylic acid]
- % Activation: 305.5%
- EC50: 1.98 µM

SMILES: CC(C)c1nn(-c2ccc(F)cc2)c2nc(C(=O)O)cc(OCC3(C)COC3)c12 [compound 608, 1-(4-fluorophenyl)-4-[(3-methyloxetan-3-yl)methoxy]-3-(propan-2-yl)-1H-pyrazolo[3,4-b]pyridine-6-carboxylic acid]
- % Activation: 338.1%
- EC50: 0.683 µM

SMILES: CC(C)c1nn(-c2ccc(F)cc2)c2nc(C(=O)O)cc(OCC3CCCO3)c12 (centres unmarked) [compound 609, 1-(4-fluorophenyl)-4-[(oxolan-2-yl)methoxy]-3-(propan-2-yl)-1H-pyrazolo[3,4-b]pyridine-6-carboxylic acid]
- % Activation: 336.4%
- EC50: 1.04 µM

SMILES: CC(C)c1nn(-c2ccc(F)cc2)c2nc(C(=O)O)cc(OCCCN3CCCCC3)c12 [compound 653, 1-(4-fluorophenyl)-4-[3-(piperidin-1-yl)propoxy]-3-(propan-2-yl)-1H-pyrazolo[3,4-b]pyridine-6-carboxylic acid]
- % Activation: 260.3%
- EC50: 3.33 µM

SMILES: O=C(O)c1cc(OCC2CCOCC2)c2c(C3CCC3)nn(-c3ccc(F)cc3)c2n1 [compound 658, 3-cyclobutyl-1-(4-fluorophenyl)-4-[(oxan-4-yl)methoxy]-1H-pyrazolo[3,4-b]pyridine-6-carboxylic acid]
- % Activation: 345.9%
- EC50: 0.455 µM

SMILES: CC(C)(O)C1CCN(c2cc(C(=O)O)nc3c2c(C2CCC2)nn3-c2ccccc2)CC1 [compound 659, 3-cyclobutyl-4-[4-(2-hydroxypropan-2-yl)piperidin-1-yl]-1-phenyl-1H-pyrazolo[3,4-b]pyridine-6-carboxylic acid]
- % Activation: 424.5%
- EC50: 0.0695 µM

SMILES: CC(C)c1nn(-c2ccc(F)cc2)c2nc(C(=O)O)cc(N3CCC(N(C)C)CC3)c12 [compound 660, 4-[4-(dimethylamino)piperidin-1-yl]-1-(4-fluorophenyl)-3-(propan-2-yl)-1H-pyrazolo[3,4-b]pyridine-6-carboxylic acid]
- % Activation: 284.47%
- EC50: 3.33 µM

SMILES: CC(=O)N1CCC(COc2cc(C(=O)O)nc3c2c(C(C)C)nn3-c2ccc(F)cc2)CC1 [compound 662, 4-[(1-acetylpiperidin-4-yl)methoxy]-1-(4-fluorophenyl)-3-(propan-2-yl)-1H-pyrazolo[3,4-b]pyridine-6-carboxylic acid]
- % Activation: 310.6%
- EC50: 2.3 µM

SMILES: COC(=O)N1CCC(COc2cc(C(=O)O)nc3c2c(C(C)C)nn3-c2ccc(F)cc2)CC1 [compound 663, 1-(4-fluorophenyl)-4-{[1-(methoxycarbonyl)piperidin-4-yl]methoxy}-3-(propan-2-yl)-1H-pyrazolo[3,4-b]pyridine-6-carboxylic acid]
- % Activation: 315.5%
- EC50: 0.0909 µM

SMILES: CC(C)c1nn(-c2ccc(F)cc2)c2nc(C(=O)O)cc(NC(=O)C3CCOCC3)c12 [compound 664, 1-(4-fluorophenyl)-4-[(oxane-4-carbonyl)amino]-3-(propan-2-yl)-1H-pyrazolo[3,4-b]pyridine-6-carboxylic acid]
- % Activation: 120.6%
- EC50: > 10 µM

SMILES: N#CCC1(O)CCN(c2cc(C(=O)O)nc3c2c(C2CCC2)nn3-c2ccccc2)CC1 [compound 665, 4-[4-(cyanomethyl)-4-hydroxypiperidin-1-yl]-3-cyclobutyl-1-phenyl-1H-pyrazolo[3,4-b]pyridine-6-carboxylic acid]
- % Activation: 330.43%
- EC50: 1.86 µM

SMILES: CCOCC1(F)CCN(c2cc(C(=O)O)nc3c2c(C(C)C)nn3-c2ccc(F)cc2)CC1 [compound 666, 4-[4-(ethoxymethyl)-4-fluoropiperidin-1-yl]-1-(4-fluorophenyl)-3-(propan-2-yl)-1H-pyrazolo[3,4-b]pyridine-6-carboxylic acid]
- % Activation: 338.35%
- EC50: 0.253 µM

SMILES: COCCOCC1(F)CCN(c2cc(C(=O)O)nc3c2c(C(C)C)nn3-c2ccc(F)cc2)CC1 [compound 667, 4-{4-fluoro-4-[(2-methoxyethoxy)methyl]piperidin-1-yl}-1-(4-fluorophenyl)-3-(propan-2-yl)-1H-pyrazolo[3,4-b]pyridine-6-carboxylic acid]
- % Activation: 339.85%
- EC50: 0.462 µM

SMILES: CC(C)c1nn(-c2ccc(F)cc2)c2nc(C(=O)O)cc(N3CC[C@@H](O)[C@H](F)C3)c12 [compound 668, 4-[(3R,4R)-3-fluoro-4-hydroxypiperidin-1-yl]-1-(4-fluorophenyl)-3-(propan-2-yl)-1H-pyrazolo[3,4-b]pyridine-6-carboxylic acid]
- % Activation: 341.65%
- EC50: 2.36 µM

SMILES: COCC1(F)CCN(c2cc(C(=O)O)nc3c2c(C(C)C)nn3-c2ccc(F)cc2)CC1 [compound 669, 4-[4-fluoro-4-(methoxymethyl)piperidin-1-yl]-1-(4-fluorophenyl)-3-(propan-2-yl)-1H-pyrazolo[3,4-b]pyridine-6-carboxylic acid]
- % Activation: 315.5%
- EC50: 0.795 µM

SMILES: COCCOCC1(F)CCCN(c2cc(C(=O)O)nc3c2c(C(C)C)nn3-c2ccc(F)cc2)C1 (centres unmarked) [compound 670, 4-{3-fluoro-3-[(2-methoxyethoxy)methyl]piperidin-1-yl}-1-(4-fluorophenyl)-3-(propan-2-yl)-1H-pyrazolo[3,4-b]pyridine-6-carboxylic acid]
- % Activation: 397.3%
- EC50: 0.218 µM
